Measured values published in PMC10058583, “Development of Novel Fluorinated Polyphenols as Selective Inhibitors of DYRK1A/B Kinase for Treatment of Neuroinflammatory Diseases including Parkinson’s Disease” (Pharmaceuticals, 2023).

Columns and labels:
[1] = target: T1, human DYRK1B isoform p65 (GST fusion) (Homo sapiens, UniProt Q9Y463); assay: ELISA-based non-radioactive kinase assay, DYRK1B; assay type: biochemical; details: 30 ng GST-DYRK1B, 60 min reaction
T1 construct: made in house
Description: (§1) DYRK1B was prepared from human DYRK1B isoform p65 as glutathione S-transferase fusion protein, and DYRK2 was prepared from human DYRK2 isoform 1 as 6xHis-tagged protein, as previously described.
(§2) For DYRK2, the reactions were performed exactly as described for DYRK1A. For DYRK1B, the assays were similarly conducted but with 30 ng GST-DYRK1B and a kinase reaction time of 60 min.

[2] = system: MPTP-treated C57BL/6J mice; assay: MPTP model for Parkinson's disease; assay type: in vivo, mouse
Description: We tested the behavioral effect of 1c in the MPTP model for PD using both IN and PO delivery (both 25 mg/kg, BID). This is a common neurodegenerative disorder model characterized by a progressive loss of dopaminergic (DA) neurons in the […]. Several studies have shown that oxidative stress, neuroinflammation, and microglial activation play a pivotal role, at least in the progression of PD [35].
MPTP dissolved in saline was administered via intraperitoneal injections once daily at a dosage of 30 mg/kg/day for 5 consecutive days. The control group was administered intraperitoneal injections of saline.
The behavioral tests were performed at initiation as the baseline and 3, 6, and 9 days following the last MPTP injection. Pole test: the test consisted of a gauze-taped pole (45 cm high, 1 cm in diameter) with a small cork ball at the top. Mice were placed with their head facing upwards immediately below the ball. Two times were recorded: the time it took for the mouse to turn completely downward (T-turn) and the time it took to descend to the floor (T-total), with a cutoff limit of 60 sec. The test consisted of two trials separated by 10 min intertrial intervals, and the average time was calculated. Mice were pretrained for 3 days before MPTP injection. The rotarod test was used to assess the motor coordination and balance of animals. On the test day, the mice were habituated for 30 min in the test room before testing. The drum was slowly accelerated to a speed of 4–40 rpm for a maximum of 300 s. The latency to fall off the rotarod within this time period was recorded. The test consisted of three trials separated by 10 min intertrial intervals. The mean latency to fall off the rotarod was recorded and used for analysis. Mice were trained for 3 days before MPTP injection.
Tissue Collection and IHC Analysis: within 2 h following the last dose, the blood of animals was collected via cardiac puncture under isoflurane-induced anesthesia. After blood collection, animals were transcardially perfused with normal saline, followed by buffered formalin fixative. Brains were removed, post-fixed, and embedded in paraffin for subsequent IHC analysis of […] (TH)-positive cells in the substantia nigra (SN).

[3] = In vitro and in vivo safety studies (not detailed)
[4] = target: T2, 6xHis-tagged rat-truncated DYRK1A (residues 1-497) (Rattus norvegicus, UniProt Q63470); assay: ELISA-based non-radioactive kinase assay, DYRK1A; assay type: biochemical; details: read-out: DYRK1A IC50
T2 construct: 6xHis-tagged rat-truncated DYRK1A (residues 1-497); 6xHis; made in house

[5] = target: T3, human DYRK2 isoform 1 (6xHis-tagged) (Homo sapiens, UniProt Q92630); assay: ELISA-based non-radioactive kinase assay, DYRK2; assay type: biochemical
T3 sequence (Q92630 74-601 limits assumed): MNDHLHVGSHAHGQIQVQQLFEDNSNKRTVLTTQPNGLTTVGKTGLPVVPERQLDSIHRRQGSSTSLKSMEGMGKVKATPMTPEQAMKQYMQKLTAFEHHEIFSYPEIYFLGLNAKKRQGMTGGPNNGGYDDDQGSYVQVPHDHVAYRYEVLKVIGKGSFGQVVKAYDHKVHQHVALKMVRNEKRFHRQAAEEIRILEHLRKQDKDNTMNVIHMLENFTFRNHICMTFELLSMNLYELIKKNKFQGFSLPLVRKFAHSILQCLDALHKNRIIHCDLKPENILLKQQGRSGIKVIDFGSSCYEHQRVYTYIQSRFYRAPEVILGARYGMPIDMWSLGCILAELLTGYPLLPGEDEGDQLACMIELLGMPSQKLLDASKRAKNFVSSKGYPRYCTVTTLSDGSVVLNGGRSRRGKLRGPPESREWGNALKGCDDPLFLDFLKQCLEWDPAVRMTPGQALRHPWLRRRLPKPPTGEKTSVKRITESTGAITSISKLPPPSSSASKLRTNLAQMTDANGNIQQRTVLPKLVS
Description: as §1, §2

[6] = IN or PO 25 mg/kg BID, no difference between the two routes

T1 sequence (Q9Y463 1-589 isoform Q9Y463-2): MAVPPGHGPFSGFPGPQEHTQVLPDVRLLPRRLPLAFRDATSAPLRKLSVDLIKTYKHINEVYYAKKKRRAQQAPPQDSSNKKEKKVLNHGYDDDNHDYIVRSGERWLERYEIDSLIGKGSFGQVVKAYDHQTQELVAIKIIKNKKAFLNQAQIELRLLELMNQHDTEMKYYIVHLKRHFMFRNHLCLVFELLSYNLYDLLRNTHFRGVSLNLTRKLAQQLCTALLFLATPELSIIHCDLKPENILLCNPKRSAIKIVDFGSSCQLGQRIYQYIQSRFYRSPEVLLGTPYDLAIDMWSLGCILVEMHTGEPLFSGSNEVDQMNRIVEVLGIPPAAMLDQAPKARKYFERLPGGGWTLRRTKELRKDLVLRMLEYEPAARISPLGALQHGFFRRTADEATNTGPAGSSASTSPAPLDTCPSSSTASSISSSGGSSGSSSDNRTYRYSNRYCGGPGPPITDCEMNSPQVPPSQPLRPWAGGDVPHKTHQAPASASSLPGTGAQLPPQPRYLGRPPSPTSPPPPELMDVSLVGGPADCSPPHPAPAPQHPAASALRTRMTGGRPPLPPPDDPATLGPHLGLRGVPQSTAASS

IC50 [1]: 79 nM
IC50 [4]: 73 nM
IC50 [5]: 331 nM
SMILES: COc1cc(C(=O)O[C@@H]2Cc3c(O)cc(O)cc3O[C@H]2c2cc(O)c(O)c(O)c2)c(F)c(O)c1O [Compound 1c]
tyrosine-hydroxylase-positive cells in the substantia nigra pars compacta ([2]; IN 25 mg/kg BID): failed to show any histological difference
movement behavior, pole test [2, 6]: completely restored
movement behavior, rotarod test [2, 6]: completely restored
tyrosine-hydroxylase-positive cells in the substantia nigra pars compacta ([2]; PO 25 mg/kg BID): protected from MPTP toxicity
in vitro and in vivo safety studies, outcome [3]: have not reveled any concerns
